PubChem BioAssay (NCI)
Values joined by “and” are separate entries in the source; they are usually repeats but may differ in a detail not shown here. Equal entries are not always repeated.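 Results reflect a 48-hour exposure of cells in 96-well plates to compound at five concentrations. At the GI50, growth is halved. TGI is the concentration that stops growth completely.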

Assays:
Assay in all cases: NCI-60 cell line screen, 48 h
786-0 renal = system: 786-0 renal
A498 renal = system: A498 renal
A549 NSCLC = system: A549 NSCLC
ACHN renal = system: ACHN renal
BT-549 breast = system: BT-549 breast
CCRF-CEM leukemia = system: CCRF-CEM leukemia
COLO 205 colon = system: COLO 205 colon
EKVX NSCLC = system: EKVX NSCLC
HCC-2998 colon = system: HCC-2998 colon
HCT-116 colon = system: HCT-116 colon
HCT-15 colon = system: HCT-15 colon
HL-60(TB) leukemia = system: HL-60(TB) leukemia
HOP-62 NSCLC = system: HOP-62 NSCLC
HOP-92 NSCLC = system: HOP-92 NSCLC
HS 578T breast = system: HS 578T breast
HT29 colon = system: HT29 colon
IGROV1 ovarian = system: IGROV1 ovarian
K-562 leukemia = system: K-562 leukemia
KM12 colon = system: KM12 colon
LOX IMVI melanoma = system: LOX IMVI melanoma
M14 melanoma = system: M14 melanoma
MALME-3M melanoma = system: MALME-3M melanoma
MCF7 breast = system: MCF7 breast
MDA-MB-231 breast = system: MDA-MB-231 breast
MDA-MB-435 = system: MDA-MB-435
MOLT-4 leukemia = system: MOLT-4 leukemia
NCI-H226 lung = system: NCI-H226 lung
NCI-H23 lung = system: NCI-H23 lung
NCI-H460 lung = system: NCI-H460 lung
NCI-H522 lung = system: NCI-H522 lung
NCI/ADR-RES ovarian = system: NCI/ADR-RES ovarian
OVCAR-3 ovarian = system: OVCAR-3 ovarian
OVCAR-4 ovarian = system: OVCAR-4 ovarian
OVCAR-5 ovarian = system: OVCAR-5 ovarian
OVCAR-8 ovarian = system: OVCAR-8 ovarian
PC-3 prostate = system: PC-3 prostate
RPMI-8226 leukemia = system: RPMI-8226 leukemia
RXF 393 renal = system: RXF 393 renal
SF-268 CNS = system: SF-268 CNS
SF-295 CNS = system: SF-295 CNS
SF-539 CNS = system: SF-539 CNS
SK-MEL-2 melanoma = system: SK-MEL-2 melanoma
SK-MEL-28 melanoma = system: SK-MEL-28 melanoma
SK-MEL-5 melanoma = system: SK-MEL-5 melanoma
SK-OV-3 ovarian = system: SK-OV-3 ovarian
SN12C renal = system: SN12C renal
SNB-19 CNS = system: SNB-19 CNS
SNB-75 CNS = system: SNB-75 CNS
SR leukemia = system: SR leukemia
SW-620 colon = system: SW-620 colon
T-47D breast = system: T-47D breast
TK-10 renal = system: TK-10 renal
U251 CNS = system: U251 CNS
UACC-62 melanoma = system: UACC-62 melanoma
UO-31 renal = system: UO-31 renal

COC(=O)[C@@H](C)C[C@H](Cc1ccccc1)NC(=O)c1csc([C@@H](C[C@H](C(C)C)N(C)C(=O)[C@@H](NC(=O)[C@H]2CCCCN2C)C(C)C)OC(C)=O)n1 was tested, and the GI50 (786-0 renal) was 0.331 nM and 2.5 nM, the TGI (786-0 renal) was 24500 nM and the GI50 (A498 renal) was 0.176 nM and < 2.5 nM. For the same molecule, the TGI (A498 renal) was 0.694 nM and < 2.5 nM, the GI50 (A549 NSCLC) was 0.457 nM and 2.5 nM and the TGI (A549 NSCLC) was > 25000 nM. For the same molecule, the GI50 (ACHN renal) was 0.417 nM and 2.5 nM, the TGI (ACHN renal) was > 25000 nM and the GI50 (BT-549 breast) was 0.284 nM and < 2.5 nM. The TGI (BT-549 breast) was 18.3 nM and < 2.5 nM, the GI50 (CCRF-CEM leukemia) was 0.425 nM and 2.5 nM and the TGI (CCRF-CEM leukemia) was > 25000 nM. The GI50 (COLO 205 colon) was < 2.5 nM, the TGI (COLO 205 colon) was < 2.5 nM and the GI50 (EKVX NSCLC) was 0.617 nM and 3.56 nM. For the same molecule, the TGI (EKVX NSCLC) was > 25000 nM, the GI50 (HCC-2998 colon) was 0.356 nM and 2.5 nM and the TGI (HCC-2998 colon) was > 25000 nM. For the same molecule, the TGI (HCT-116 colon) was > 25000 nM, the GI50 (HCT-15 colon) was 0.31 nM and 2.5 nM and the TGI (HCT-15 colon) was > 25000 nM. For the same molecule, the GI50 (HL-60(TB) leukemia) was 0.187 nM and < 2.5 nM, the TGI (HL-60(TB) leukemia) was 0.627 nM and < 2.5 nM and the GI50 (HOP-62 NSCLC) was 0.396 nM and 2.5 nM. The TGI (HOP-62 NSCLC) was > 25000 nM, the GI50 (HOP-92 NSCLC) was 0.692 nM and < 2.5 nM and the GI50 (HS 578T breast) was 0.641 nM. The TGI (HT29 colon) was > 25000 nM, the GI50 (IGROV1 ovarian) was 0.308 nM and 2.5 nM and the TGI (IGROV1 ovarian) was > 25000 nM. The TGI (K-562 leukemia) was > 25000 nM, the TGI (KM12 colon) was > 25000 nM and the GI50 (LOX IMVI melanoma) was 0.695 nM and 2.5 nM. The TGI (LOX IMVI melanoma) was > 25000 nM, the GI50 (M14 melanoma) was 0.134 nM and the TGI (M14 melanoma) was 0.531 nM. The GI50 (MALME-3M melanoma) was 8670 nM, the TGI (MALME-3M melanoma) was > 25000 nM and the TGI (MCF7 breast) was > 25000 nM. The GI50 (MDA-MB-231 breast) was 0.506 nM and 2.5 nM, the TGI (MDA-MB-231 breast) was 11.6 nM and the GI50 (MDA-MB-435) was < 0.1 nM. The TGI (MDA-MB-435) was 0.135 nM and < 2.5 nM, the GI50 (MOLT-4 leukemia) was 0.5 nM and 2.5 nM and the TGI (MOLT-4 leukemia) was > 25000 nM. The GI50 (NCI-H226 lung) was 2.5 nM, the TGI (NCI-H226 lung) was > 25000 nM and the GI50 (NCI-H23 lung) was 0.395 nM and 2.5 nM. The TGI (NCI-H23 lung) was > 25000 nM, the TGI (NCI-H460 lung) was > 25000 nM and the GI50 (NCI-H522 lung) was 0.178 nM. The TGI (NCI-H522 lung) was 0.897 nM, the GI50 (NCI/ADR-RES ovarian) was 3.83 nM and 2.5 nM and the TGI (NCI/ADR-RES ovarian) was > 25000 nM. The GI50 (OVCAR-3 ovarian) was < 0.1 nM, the TGI (OVCAR-4 ovarian) was > 25000 nM and the GI50 (OVCAR-5 ovarian) was 0.369 nM and 2.5 nM. For the same molecule, the TGI (OVCAR-5 ovarian) was > 25000 nM, the GI50 (OVCAR-8 ovarian) was 0.519 nM and 2.5 nM and the TGI (OVCAR-8 ovarian) was > 25000 nM. The TGI (PC-3 prostate) was > 25000 nM, the TGI (RPMI-8226 leukemia) was 7540 nM and the GI50 (RXF 393 renal) was 2.5 nM. The TGI (RXF 393 renal) was > 25000 nM, the GI50 (SF-268 CNS) was 0.671 nM and 2.5 nM and the TGI (SF-268 CNS) was > 25000 nM. The TGI (SF-295 CNS) was 13100 nM, the GI50 (SF-539 CNS) was 0.294 nM and < 2.5 nM and the TGI (SF-539 CNS) was 2.09 nM and < 2.5 nM. The GI50 (SK-MEL-2 melanoma) was 0.256 nM, the GI50 (SK-MEL-28 melanoma) was 2.5 nM and the TGI (SK-MEL-28 melanoma) was > 25000 nM. The GI50 (SK-MEL-5 melanoma) was < 0.1 nM, the TGI (SK-MEL-5 melanoma) was 3.01 nM and < 2.5 nM and the TGI (SK-OV-3 ovarian) was > 25000 nM. For the same molecule, the GI50 (SN12C renal) was 0.567 nM and 2.5 nM, the TGI (SN12C renal) was > 25000 nM and the TGI (SNB-19 CNS) was > 25000 nM. For the same molecule, the TGI (SNB-75 CNS) was > 25000 nM, the TGI (SR leukemia) was > 25000 nM and the TGI (SW-620 colon) was > 25000 nM. For the same molecule, the GI50 (T-47D breast) was > 25000 nM, the TGI (T-47D breast) was > 25000 nM and the GI50 (TK-10 renal) was 22.3 nM and 2.5 nM. The TGI (TK-10 renal) was > 25000 nM, the GI50 (U251 CNS) was 0.396 nM and 2.5 nM and the TGI (U251 CNS) was > 25000 nM. For the same molecule, the TGI (UACC-62 melanoma) was > 25000 nM, the GI50 (UO-31 renal) was 0.932 nM and 2.5 nM and the TGI (UO-31 renal) was > 25000 nM.
